In brackets after ≈: the same amount, converted by molar mass. Read-outs that look alike come from different tables or passages of the source.
How the values were obtained:
MDA-MB-231 cells [1] = experiment: IncuCyte proliferation assay, MDA-MB-231; type: cell-based, human; conditions: 72 h; for effect on proliferation: up to 50 µM
Protocol: (§1) MDA-MB-231 and MCF7 cells were grown to confluence, detached using trypsin–EDTA cell dissociation buffer (Gibco 12604013) and counted. Cells were plated into 384-well, clear-bottom, black, tissue culture treated plates (Corning 3683) using an automatic dispenser (Thermo Multidrop Combi SMART) at densities of 2000 cells/10 µL/well for MDA-MB-231 cells and 4000 cells/10 µL/well for MCF7 cells in DMEM supplemented with 5% FBS. After 4 h incubation at 37 °C with 5% CO2, the growth medium was replaced with 10 µL medium containing compounds at 16-point 1:2 serial dilutions with the final highest concentration of 50 µM for each compound. All samples containing compounds were plated in triplicate. Cells in the first column of the plate were treated with 0.5% DMSO as control. The plates were placed into an Incucyte SX5 Live-cell imaging system (Sartorius) and phase images were taken at 6-h intervals for 72 h with 10X objective lens. The growth medium containing compounds or DMSO was replenished after 24 h. The images were analyzed, and the growth curves generated by the Incucyte software 2020A using the basic analyzer mode.

His-Cdc42 = biological target: T1, His-Cdc42 (Homo sapiens, UniProt P60953, Q61L); experiment: Microscale thermophoresis (MST); type: binding; conditions: for effect on thermophoretic motion of Cdc42 / Kd: MST; for effect on thermophoretic motion of Cdc42: 500 µM to 244 nM; for Kd: 100 nM labeled His-Cdc42, n = 3
T1 construct: made in house; host or cells: E. coli
T1 sequence (P60953 1-184 isoform P60953-1 Q61L): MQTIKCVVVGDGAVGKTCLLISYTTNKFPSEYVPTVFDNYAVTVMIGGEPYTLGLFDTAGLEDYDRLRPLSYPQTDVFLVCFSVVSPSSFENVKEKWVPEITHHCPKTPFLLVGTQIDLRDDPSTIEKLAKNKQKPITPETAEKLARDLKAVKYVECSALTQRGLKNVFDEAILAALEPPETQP
Protocol: Two-fold serial dilutions of compounds were first prepared in DMSO, then further diluted in PBS containing 0.05% Tween-20. […] Samples were loaded into Monolith™ standard capillaries and measured using Monolith NT.115 (Nanotemper Technologies) with 50% excitation power and 50% MST power, with laser on and off times of 30 s and 5 s, respectively. The Kd values were calculated by evaluating the thermophoresis and T-Jump signals using MO.Affinity Analysis software (Nanotemper Technologies). All experiments were conducted in three biological replicates.

MCF7 cells = experiment: IncuCyte proliferation assay, MCF7; type: cell-based, human; conditions: 72 h; for effect on proliferation: up to 50 µM
Protocol: as §1

[2] = pION µSOL kinetic aqueous solubility; type: physicochemical; conditions: pION µSOL assay, pH 7.4; for solubility kinetic: aqueous medium
MDA-MB-231 cells [3] = experiment: Scratch wound migration assay; type: cell-based, human; conditions: for cell migration maximum efficiency / EC50: scratch wound, 72 h; for EC50: read-out: cell migration EC50
Protocol: MDA-MB-231 cells were grown to confluence and plated into a 96-well clear plate (Sartorius 4379) at 30,000 cells/100 µL/well in DMEM supplemented with 5% FBS. Cells were incubated at 37 °C with 5% CO2 overnight. Even wounds were created using a 96-pin wound device (Sartorius 4493) following the manufacturer’s protocol. Medium was then aspirated, and the cells were washed once with PBS pH 7.4 before adding 100 µL/well of fresh growth medium. Then 100 µL/well of growth medium containing compounds at an 8-point 1:2 titration dispensed into the cell plate resulting a final highest concentration of 50 µM for each compound. 0.5% DMSO was used as control. All samples were plated in triplicate. The plate was placed into an Incucyte SX5 Live-cell imaging system and phase images were taken in 2-h intervals for 72 h using the scratch wound setting. Medium was aspirated and replaced with a fresh medium containing compounds or DMSO after 24 h. The images were analyzed, and the wound density curves generated by the Incucyte software 2020A using the scratch wound analysis option.

[4] = Parallel artificial membrane permeation assay (PAMPA); type: in vitro ADME; conditions: for Papp: PAMPA, read-out: PAMPA passive permeability
[5] = Metabolic half-life in rat liver microsome lysates; type: in vitro ADME; conditions: minimum detectable half-life of 1 min; for half-life: read-out: T1/2 metabolic half-life
[6] = system: endogenous IQGAP1/Cdc42 interaction; experiment: Immunoprecipitation of endogenous IQGAP1 and co-precipitated Cdc42 in HEK293 cell lysates; type: binding; conditions: 0.2-50 µM
Protocol: Each compound was added to lysates from HEK293 cells at a final concentration of 50 µM and endogenous IQGAP1 was immunoprecipitated. DMSO alone was used as the negative control (100% binding).
HEK293 cells were plated in 10-cm dishes to reach 80% confluence. The following day, the cells were washed with ice-cold phosphate-buffered saline (PBS) and lysed with 500 µl of Buffer A (50 mM Tris–HCl, pH 7.4, 150 mM NaCl, and 1% Triton X-100) supplemented with complete protease and phosphatase inhibitors (Roche, Mannheim, Germany). Lysates were subjected to two rounds of sonication for 10 s each, and insoluble material was precipitated by centrifugation at 13,000 xg for 10 min at 4 °C. Supernatants were precleared with protein A-Sepharose beads for 1 h. DMSO (vehicle) or different concentrations of the compounds (0.2, 0.6, 1, 5, 16 or 50 µM) were added to equal amounts of protein lysates for 30 min. Protein A-Sepharose beads and anti-IQGAP1 polyclonal antibodies were then added for 2 h at 4 °C. Anti-rabbit IgG antibodies were used as the immunoprecipitation control. Samples were washed five times with Buffer A, resolved by SDS-PAGE and transferred to polyvinylidene fluoride (PVDF) membranes (Millipore Corp). Membranes were probed with anti-IQGAP1 and anti-Cdc42 antibodies. After secondary antibody detection, Western blots were imaged using a LI-COR Odyssey infrared imaging system (LI-COR, USA). Western blot quantification and analysis was conducted using Image Studio™ Lite (LI-COR Biosciences).

Row | Structure (SMILES) | EC50 (MDA-MB-231 cells [1]; confluency) [µM] | effect on proliferation (MDA-MB-231 cells [1]) | concentration above which precipitates formed (His-Cdc42; MST samples, PBS containing 0.05% Tween-20) | effect on thermophoretic motion of Cdc42 (His-Cdc42) | EC50 (MCF7 cells; confluency) [µM] | effect on proliferation (MCF7 cells) | Solubility (kinetic aqueous) [2] [mg/mL] | effect on cell shape (MDA-MB-231 cells [3]; 50 µM (Fig. S3)) | cell migration maximum efficiency (MDA-MB-231 cells [3]) [%] | EC50 (MDA-MB-231 cells [3]) [µM] | PAMPA passive permeability [4] [nm/s] | T1/2 metabolic half-life [5] [min] | effect on Cdc42 binding to IQGAP1 in immunoprecipitation [6] | Kd (His-Cdc42; read-out: dissociation constant (Kd) for Cdc42) [µM] | solubility kinetic [2] [mg/mL] | inhibition at 50 µM (MDA-MB-231 cells [3]; Homo sapiens, 50 μM, the highest concentration used, read-out: inhibition of cell migration) [%] | Papp [4] [nm/s] | half-life [5] [min] | Kd (His-Cdc42) [µM] | EC50 (MDA-MB-231 cells [3]; Homo sapiens) [µM]
1 | CCN(CC)CCn1c2ccccc2c2nc3ccc([N+](=O)[O-])cc3cc21 [MLS000332963] | 3.01 | dose-dependent inhibitory effect | above 62.5 µM | did not affect the thermophoretic motion of Cdc42 | 6.54 | dose-dependent inhibitory effect | < 0.001 | flatter and spread out more on the plastic | 39 | 2.7 | 6750 | 11.47 | reduced the binding substantially | – | – | – | – | – | – | –
2 | Cc1cccc(NC(=O)c2c(NC(=O)C(F)(F)F)sc3c2CCCCC3)c1 [NCGC00098561] | – | – | – | did not affect the thermophoretic motion of Cdc42 | – | – | – | – | – | – | – | – | reduced the binding substantially | – | – | – | – | – | – | –
3 | CCN1CCN(c2ncc3c(n2)CCN(Cc2cc(Br)cs2)C3)CC1 [NCGC00131308] | – | dose-dependent inhibitory effect | – | – | – | dose-dependent inhibitory effect | – | – | – | – | – | – | reduced the binding substantially | 28.1 | 0.0372 (≈ 88 µM) | 57.7 ± 7.2 | 770 | 2.7 | – | –
4 | CCc1ccccc1Nc1ncnc2c1cnn2-c1ccc(Cl)cc1 [NCGC00138812] | – | dose-dependent inhibitory effect | – | – | – | dose-dependent inhibitory effect | – | – | 20 | – | – | – | reduced the binding substantially | – | < 0.001 | – | 1770 | 7.12 | 96.2 | 12.9

— article PMC9576799, “Discovery of small molecule inhibitors that effectively disrupt IQGAP1-Cdc42 interaction in breast cancer cells” (Scientific Reports, 2022)
